Test results taken from patent US20250179073A1, “TRICYCLIC HETEROCYCLE COMPOUNDS AS IAP ANTAGONISTS” (Ascentage Pharma (Suzhou) Co., Ltd., priority 2022, published 2025).

tested on: MDA-MB-231 cells; assay: Cell proliferation assay (CellTiter-Glo), MDA-MB-231; type: cell-based; details: 72 h treatment, Celltiter-Glo luminescence
Outline: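 MDA-MB-231 (RPMI-1640/10% FBS) and EVSA-T (MEM/10% FBS) cells, 10000 cells/well, exposed 72 h to compound at […]. Viability read by CellTiter-Glo luminescence after 15 min at room temperature. IC50 from control-normalised curve fitting.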

IC50 [nM]	SMILES
80	C[C@@H]1CN(CC(=O)N2CC(C)(C)c3c2cc(Cc2ccc(F)cc2)c2nc(N4C[C@@H](O)[C@H](O)C4)nn32)[C@@H](CN2CCOC[C@H]2C)CN1 [Compound 188, 1-(2-((3R,4R)-3,4-dihydroxypyrrolidin-1-yl)-4-(4-fluorobenzyl)-8,8-dimethyl-7,8-dihydro-6H-pyrrolo[2,3-e][1,2,4]triazolo[1,5-a]pyridin-6-yl)-2-((2R,5R)-5-methyl-2-(((R)-3-methylmorpholino)methyl)piperazin-1-yl)ethan-1-one]

same assay, conditions: Homo sapiens, MDA-MB-231, 72 h, 72 h treatment, Celltiter-Glo luminescence

IC50 [nM]	SMILES
810	C[C@@H]1CN(CC(=O)N2CC3(CCOCC3)c3c2cc(Cc2ccc(F)cc2)c2nc(C(F)(F)F)cn32)[C@@H](CN2CCOC[C@H]2C)CN1 [Compound 183, 1-(4-(4-fluorobenzyl)-2-(trifluoromethyl)-2′,3′,5′,6′-tetrahydrospiro[imidazo[1,2-a]pyrrolo[2,3-e]pyridine-8,4′-pyran]-6(7H)-yl)-2-((2R,5R)-5-methyl-2-(((R)-3-methylmorpholino)methyl)piperazin-1-yl)ethan-1-one]
190	C[C@@H]1CN(CC(=O)N2CC(C)(C)c3c2cc(N2CCCc4cc(F)ccc42)c2ncnn32)[C@@H](CN2CCOC[C@H]2C)CN1 [Compound 168, 1-(4-(6-fluoro-3,4-dihydroquinolin-1(2H)-yl)-8,8-dimethyl-7,8-dihydro-6H-pyrrolo[2,3-e][1,2,4]triazolo[1,5-a]pyridin-6-yl)-2-((2R,5R)-5-methyl-2-(((R)-3-methylmorpholino)methyl)piperazin-1-yl)ethan-1-one]
160	CC(C)c1ncc2c(Cc3ccc(F)cc3)cc3c(n12)C(C)(C)CN3C(=O)CN1C[C@@H](C)NC[C@@H]1CN1CCOC[C@H]1C [Example 5, 1-(4-(4-fluorobenzyl)-1-isopropyl-8,8-dimethyl-7,8-dihydro-6H-imidazo[1,5-a]pyrrolo[2,3-e]pyridin-6-yl)-2-((2R,5R)-5-methyl-2-(((R)-3-methylmorpholino)methyl)piperazin-1-yl)ethan-1-one]
330	C[C@@H]1CN(CC(=O)N2CC(C)(C)c3c2cc(Cc2ccc(F)cc2)c2scnc32)[C@@H](CN2CCOC[C@H]2C)CN1 [Example 28, 1-(4-(4-fluorobenzyl)-8,8-dimethyl-7,8-dihydro-6H-thiazolo[4,5-e]indol-6-yl)-2-((2R,5R)-5-methyl-2-(((R)-3-methylmorpholino)methyl)piperazin-1-yl)ethan-1-one]
180	C[C@@H]1CN(CC(=O)N2CC(C)(C)c3c2cc(Cc2ccc(F)cc2)c2nc(N4CCNC(=O)C4)nn32)[C@@H](CN2CCOC[C@H]2C)CN1 [Compound 195, 4-(4-(4-fluorobenzyl)-8,8-dimethyl-6-(2-((2R,5R)-5-methyl-2-(((R)-3-methylmorpholino)methyl)piperazin-1-yl)acetyl)-7,8-dihydro-6H-pyrrolo[2,3-e][1,2,4]triazolo[1,5-a]pyridin-2-yl)piperazin-2-one]
530	C[C@@H]1CN(CC(=O)N2CC(C)(C)c3c2cc(Cc2ccc(F)cc2)c2nc(C(F)(F)F)cn32)[C@@H](CN2[C@H](C)COC[C@@H]2C)CN1 [Compound 173, 2-((2R,5R)-2-(((3S,5R)-3,5-dimethylmorpholino)methyl)-5-methylpiperazin-1-yl)-1-(4-(4-fluorobenzyl)-8,8-dimethyl-2-(trifluoromethyl)-7,8-dihydro-6H-imidazo[1,2-a]pyrrolo[2,3-e]pyridin-6-yl)ethan-1-one]
330	C[C@@H]1CN(CC(=O)N2CC(C)(C)c3c2cc(Cc2ccc(F)cc2)c2nc(C(F)(F)F)cn32)[C@@H](CN2CCOC[C@H]2CO)CN1 [Compound 160, 1-(4-(4-fluorobenzyl)-8,8-dimethyl-2-(trifluoromethyl)-7,8-dihydro-6H-imidazo[1,2-a]pyrrolo[2,3-e]pyridin-6-yl)-2-((2R,5R)-2-((3-(hydroxymethyl)morpholino)methyl)-5-methylpiperazin-1-yl)ethan-1-one]
400	CCOC(=O)c1cnn2c3c(cc(Cc4ccc(F)cc4)c12)N(C(=O)CN1C[C@@H](C)NC[C@@H]1CN1CCOC[C@H]1C)CC3(C)C [Compound 120, ethyl 4-(4-fluorobenzyl)-8,8-dimethyl-6-(2-((2R,5R)-5-methyl-2-(((R)-3-methylmorpholino)methyl)piperazin-1-yl)acetyl)-7,8-dihydro-6H-pyrazolo[1,5-a]pyrrolo[2,3-e]pyridine-3-carboxylate]
26	C[C@@H]1CN(CC(=O)N2CC(C)(C)c3c2cc(Cc2ccc(F)cc2)c2nn(CC(C)(C)O)c(=O)n32)[C@@H](CN2CCC(F)(F)C[C@H]2C)CN1 [Compound 281, 6-(2-((2R,5R)-2-(((R)-4,4-difluoro-2-methylpiperidin-1-yl)methyl)-5-methylpiperazin-1-yl)acetyl)-4-(4-fluorobenzyl)-2-(2-hydroxy-2-methylpropyl)-8,8-dimethyl-2,6,7,8-tetrahydro-1H-pyrrolo[2,3-e][1,2,4]triazolo[4,3-a]pyridin-1-one]
50	C[C@@H]1CN(CC(=O)N2CC(C)(C)c3c2cc(Cc2ccc(F)cc2)c2cnc(C4CCC4)n32)[C@@H](CN2CCOC[C@H]2C)CN1 [Example 6, 1-(1-cyclobutyl-4-(4-fluorobenzyl)-8,8-dimethyl-7,8-dihydro-6H-imidazo[1,5-a]pyrrolo[2,3-e]pyridin-6-yl)-2-((2R,5R)-5-methyl-2-(((R)-3-methylmorpholino)methyl)piperazin-1-yl)ethan-1-one]
560	C[C@@H]1CN(CC(=O)N2CC(C)(C)c3c2cc(Cc2ccc(F)cc2)c2ncnn32)C(CN2CCN(CC#N)C3CC32)CN1 (stereo in doubt) [Compound 213, 2-(5-(((2S,5R)-1-(2-(4-(4-fluorobenzyl)-8,8-dimethyl-7,8-di hydro-6H-pyrrolo[2,3-e][1,2,4]triazolo[1,5-a]pyridin-6-yl)-2-oxoethyl)-5-methylpiperazin-2-yl)methyl)-2,5-diazabicyclo[4.1.0]heptan-2-yl)acetonitrile]
330	C[C@@H]1CN(CC(=O)N2CC(C)(C)c3c2cc(Cc2ccc(F)cc2)c2nn(Cc4ncn(C)n4)c(=O)n32)[C@@H](CN2CCOC[C@H]2C)CN1 [Compound 232, 4-(4-fluorobenzyl)-8,8-dimethyl-2-((1-methyl-1H-1,2,4-triazol-3-yl)methyl)-6-(2-((2R,5R)-5-methyl-2-(((R)-3-methylmorpholino)methyl)piperazin-1-yl)acetyl)-2,6,7,8-tetrahydro-1H-pyrrolo[2,3-e][1,2,4]triazolo[4,3-a]pyridin-1-one]
6260	C[C@@H]1CN(CC(=O)N2CC(C)(C)c3c2cc(Cc2ccc(F)cc2)c2nc(N(S(C)(=O)=O)S(C)(=O)=O)nn32)[C@@H](CN2CCOC[C@H]2C)CN1 [Example 16, N-(4-(4-fluorobenzyl)-8,8-dimethyl-6-(2-((2R,5R)-5-methyl-2-(((R)-3-methylmorpholino)methyl)piperazin-1-yl)acetyl)-7,8-dihydro-6H-pyrrolo[2,3-e][1,2,4]triazolo[1,5-a]pyridin-2-yl)-N-(methylsulfonyl)methanesulfonamide]
310	C[C@@H]1CN(CC(=O)N2CC(C)(C)c3c2cc(Cc2ccc(F)cc2)c2nc(CS(C)(=O)=O)nn32)[C@@H](CN2CCOC[C@H]2C)CN1 [Compound 141, 1-(4-(4-fluorobenzyl)-8,8-dimethyl-2-((methylsulfonyl)methyl)-7,8-dihydro-6H-pyrrolo[2,3-e][1,2,4]triazolo[1,5-a]pyridin-6-yl)-2-((2R,5R)-5-methyl-2-(((R)-3-methylmorpholino)methyl)piperazin-1-yl)ethan-1-one]
67	C[C@@H]1CN(CC(=O)N2CC(C)(C)c3c2cc(Cc2ccc(F)cc2)c2nn(CC(C)(C)O)c(=O)n32)[C@@H](CN2CCOCC2(C)C)CN1 [Compound 277, 6-(2-((2R,5R)-2-((3,3-dimethylmorpholino)methyl)-5-methylpiperazin-1-yl)acetyl)-4-(4-fluorobenzyl)-2-(2-hydroxy-2-methylpropyl)-8,8-dimethyl-2,6,7,8-tetrahydro-1H-pyrrolo[2,3-e][1,2,4]triazolo[4,3-a]pyridin-1-one]
280	C[C@@H]1CN(CC(=O)N2CC(C)(C)c3c2cc(Sc2ccc(F)cc2N)c2ncnn32)[C@@H](CN2CCOC[C@H]2C)CN1 [Compound 216, 1-(4-((2-amino-4-fluorophenyl)thio)-8,8-dimethyl-7,8-dihydro-6H-pyrrolo[2,3-e][1,2,4]triazolo[1,5-a]pyridin-6-yl)-2-((2R,5R)-5-methyl-2-(((R)-3-methylmorpholino)methyl)piperazin-1-yl)ethan-1-one]
99	C[C@@H]1CN(CC(=O)N2CC(C)(C)c3c2cc(Cc2ccc(F)cc2)c2nc(N4CC(C)(O)C4)nn32)[C@@H](CN2CCOC[C@H]2C)CN1 [Compound 170, 1-(4-(4-fluorobenzyl)-2-(3-hydroxy-3-methylazetidin-1-yl)-8,8-dimethyl-7,8-dihydro-6H-pyrrolo[2,3-e][1,2,4]triazolo[1,5-a]pyridin-6-yl)-2-((2R,5R)-5-methyl-2-(((R)-3-methylmorpholino)methyl)piperazin-1-yl)ethan-1-one]
80	Cc1nccn1C[C@H]1CN[C@H](C)CN1CC(=O)N1CC(C)(C)c2c1cc(Cc1ccc(F)cc1)c1ncnn21 [Compound 91, 1-(4-(4-fluorobenzyl)-8,8-dimethyl-7,8-dihydro-6H-pyrrolo[2,3-e][1,2,4]triazolo[1,5-a]pyridin-6-yl)-2-((2R,5R)-5-methyl-2-((2-methyl-1H-imidazol-1-yl)methyl)piperazin-1-yl)ethan-1-one]

SMILES	IC50 [nM]
C[C@@H]1CN(CC(=O)N2CC(C)(C)c3c2cc(Cc2ccc(F)cc2)c2nn(CC(C)(C)O)c(=O)n32)[C@@H](CN2C3COCC2C3)CN1 [Compound 289, 6-(2-((2R,5R)-2-((3-oxa-6-azabicyclo[3.1.1]heptan-6-yl)methyl)-5-methylpiperazin-1-yl)acetyl)-4-(4-fluorobenzyl)-2-(2-hydroxy-2-methylpropyl)-8,8-dimethyl-2,6,7,8-tetrahydro-1H-pyrrolo[2,3-e][1,2,4]triazolo[4,3-a]pyridin-1-one]	1700
